Source: ChEMBL document CHEMBL3046358, “Multiple Pro-197 substitutions in the acetolactate synthase of rigid ryegrass (Lolium rigidum) and their impact on chlorsulfuron activity and plant growth” (Crop Prot, 2012)

Key:
Lolium rigidum [1] = experiment: Herbicidal activity against Lolium rigidum accession A03 assessed as emergence rate applied at 4 times pre-emergence recommended rate relative to untreated control; type: functional
Lolium rigidum [2] = experiment: Herbicidal activity against Lolium rigidum accession A02 assessed as fresh weight reduction applied at 1 times pre-emergence recommended rate relative to untreated control; type: functional; design: scale not given: the % may be the effect or the level left
Acetolactate synthase [3] = target: Acetolactate synthase (Lolium rigidum, UniProt A7XBP7, P197R/P197S); experiment: Inhibition of acetolactate synthase Pro-197/Arg-197 or Pro-197/Ser-197 or Pro/Val or Ala/Leu mutant in Lolium rigidum accession A17 leaves extracts by acetolactate production assay; settings: read-out: I50
[4] = target: T1, Acetolactate synthase (Lolium rigidum) (UniProt A7XBP7); experiment: Resistance index, ratio of I50 for acetolactate synthase Pro-197/Pro-197 mutant in Lolium rigidum accession A09 leaves extracts to I50 for acetolactate synthase in Lolium rigidum accession A01 leaves extracts
T1 sequence (whole entry): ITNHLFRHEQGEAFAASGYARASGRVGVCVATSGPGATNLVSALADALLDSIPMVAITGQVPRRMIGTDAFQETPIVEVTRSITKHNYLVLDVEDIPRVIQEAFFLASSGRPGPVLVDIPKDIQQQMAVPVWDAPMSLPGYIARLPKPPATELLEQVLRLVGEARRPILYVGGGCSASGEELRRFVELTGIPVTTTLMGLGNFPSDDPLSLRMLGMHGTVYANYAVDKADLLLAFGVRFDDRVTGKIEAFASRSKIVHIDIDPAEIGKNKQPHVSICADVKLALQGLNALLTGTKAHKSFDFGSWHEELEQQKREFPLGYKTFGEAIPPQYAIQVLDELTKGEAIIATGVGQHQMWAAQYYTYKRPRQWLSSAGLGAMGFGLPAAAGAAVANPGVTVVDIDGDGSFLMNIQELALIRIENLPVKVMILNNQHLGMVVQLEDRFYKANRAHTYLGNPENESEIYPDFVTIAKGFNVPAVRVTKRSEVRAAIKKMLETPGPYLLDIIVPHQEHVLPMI

[5] = target: T1, Acetolactate synthase (Lolium rigidum); experiment: Resistance index, ratio of I50 for acetolactate synthase Ala-197/Ala-197 mutant in Lolium rigidum accession A19 leaves extracts to I50 for acetolactate synthase in Lolium rigidum accession A01 leaves extracts
Lolium rigidum [6] = experiment: Herbicidal activity against Lolium rigidum accession A07 assessed as fresh weight reduction applied at 4 times pre-emergence recommended rate relative to untreated control; type: functional; design: scale not given: the % may be the effect or the level left
Acetolactate synthase [7] = target: Acetolactate synthase (Lolium rigidum, UniProt A7XBP7); experiment: Inhibition of acetolactate synthase Ser-197/Ser-197 mutant in Lolium rigidum accession A21 leaves extracts by acetolactate production assay; settings: read-out: I50
[8] = target: T1, Acetolactate synthase (Lolium rigidum); experiment: Resistance index, ratio of I50 for acetolactate synthase Ala-197/Ala-197 mutant in Lolium rigidum accession A16 leaves extracts to I50 for acetolactate synthase in Lolium rigidum accession A01 leaves extracts
Lolium rigidum [9] = experiment: Herbicidal activity against Lolium rigidum accession A09 assessed as fresh weight reduction applied at 1 times pre-emergence recommended rate applied in pots where terbufos had been incorporated into the soil relative to untreated control; type: functional; design: scale not given: the % may be the effect or the level left
Lolium rigidum [10] = experiment: Herbicidal activity against Lolium rigidum accession A12 assessed as fresh weight reduction applied at 1 times pre-emergence recommended rate relative to untreated control; type: functional; design: scale not given: the % may be the effect or the level left
[11] = target: T1, Acetolactate synthase (Lolium rigidum); experiment: Resistance index, ratio of I50 for acetolactate synthase Ala-197/Ala-197 mutant in Lolium rigidum accession A05 leaves extracts to I50 for acetolactate synthase in Lolium rigidum accession A01 leaves extracts
Lolium rigidum [12] = experiment: Herbicidal activity against Lolium rigidum accession A03 assessed as emergence rate applied at 1 times pre-emergence recommended rate applied in pots where terbufos had been incorporated into the soil relative to untreated control; type: functional
Lolium rigidum [13] = experiment: Herbicidal activity against Lolium rigidum accession A10 assessed as emergence rate applied at 1 times pre-emergence recommended rate applied in pots where terbufos had been incorporated into the soil relative to untreated control; type: functional

Question: For `COc1nc(C)nc(NC(=O)NS(=O)(=O)c2ccccc2Cl)n1` [CHLORSULFURON], which Activity (Lolium rigidum [1]) is on record?
Answer: 1%

Question: What about the Activity (Lolium rigidum [2]) of the same compound?
Answer: 96%

Question: What about the IC50 (Acetolactate synthase [3]) of the same compound?
Answer: 0.87 µM

Question: What about the Ratio [4] of the same compound?
Answer: 1

Question: And the Ratio [5]?
Answer: 620

Question: And the Activity (Lolium rigidum [6])?
Answer: 49%

Question: And the IC50 (Acetolactate synthase [7])?
Answer: 1.58 µM

Question: What about the Ratio [8] of the same compound?
Answer: 257

Question: And the Activity (Lolium rigidum [9])?
Answer: 94%

Question: And the Activity (Lolium rigidum [10])?
Answer: 95%

Question: And the Ratio [11]?
Answer: 163

Question: And the Activity (Lolium rigidum [12])?
Answer: 1%

Question: And the Activity (Lolium rigidum [13])?
Answer: 3%
